According to US5278045A, “Method and compositions to screen compounds for enhancement of the cholinergic, dopaminergic and serotonergic function” (Du Pont Merck Pharmaceutical Company, priority 1990, dated 1994):
Where no end group is shown, it is not given here.

Tested on: DuP 996 binding protein
Assay: Specificity of the DuP 996 binding protein (displacement of tritiated DuP 996 by pharmacological standards)
Design: species or system rat
Settings: not given

Row | Compound | ability to displace tritiated DuP 996 binding from the binding protein
1 | CN1C(=O)CN=C(c2ccccc2)c2cc(Cl)ccc21 [diazepam] | None of these pharmacological standards was able to displace
2 | COc1ccc(CCN(C)CCCC(C#N)(c2ccc(OC)c(OC)c2)C(C)C)cc1OC (stereo not drawn) [verapamil] | None of these pharmacological standards was able to displace
3 | CN1[C@@H]2CC[C@H]1C[C@@H](OC(=O)C(CO)c1ccccc1)C2 (stereo partly drawn) [atropine] | None of these pharmacological standards was able to displace
4 | CN1CCCC1c1cccnc1 (stereo not drawn) [nicotine] | None of these pharmacological standards was able to displace

Same assay, conditions: receptor and ion channel ligands and neuropeptides against 10 nM tritiated DuP 996

Row | Compound | ability to displace tritiated DuP 996 binding from the binding protein
5 | CN1CCN2c3ccccc3Cc3ccccc3C2C1 (stereo not drawn) [mianserin] | None of these pharmacological standards was able to displace
6 | C1CCc2nnnn2CC1 [pentylenetetrazol] | None of these pharmacological standards was able to displace
7 | CN/C(=N/CCSCc1nc[nH]c1C)NC#N [cimetidine] | None of these pharmacological standards was able to displace
8 | O=C1C[C@@H]2OCC=C3CN4CC[C@]56c7ccccc7N1[C@H]5[C@H]2[C@H]3C[C@H]46 [strychnine] | None of these pharmacological standards was able to displace
9 | CN(C)CCC=C1c2ccccc2CCc2ccccc21 [amitriptyline] | None of these pharmacological standards was able to displace
10 | LHRH: pharmacological standard | None of these pharmacological standards was able to displace
11 | CN[C@H](CC(=O)O)C(=O)O [N-methyl-D-aspartic acid] | None of these pharmacological standards was able to displace
12 | NC[C@H](O)c1ccc(O)c(O)c1 [norepinephrine] | None of these pharmacological standards was able to displace
13 | NC(=O)CN1CCCC1=O [piracetam] | None of these pharmacological standards was able to displace
14 | ACTH 1-24: pharmacological standard | None of these pharmacological standards was able to displace
15 | CC(C)NCC(O)c1ccc(O)c(O)c1 (stereo not drawn) [isoproterenol] | None of these pharmacological standards was able to displace
16 | COc1ccc(CN(CCN(C)C)c2ccccn2)cc1 [pyrilamine] | None of these pharmacological standards was able to displace
17 | NCCCC(=O)O [GABA] | None of these pharmacological standards was able to displace
18 | Cn1c(=O)c2c(ncn2C)n(C)c1=O [caffeine] | None of these pharmacological standards was able to displace
19 | O=C(CCCN1CCC(O)(c2ccc(Cl)cc2)CC1)c1ccc(F)cc1 [haloperidol] | None of these pharmacological standards was able to displace
20 | 3,4-aminopyridine | None of these pharmacological standards was able to displace
21 | neurokinin A | None of these pharmacological standards was able to displace
22 | cholecystokinin | None of these pharmacological standards was able to displace
23 | neurotensin 8-13 | None of these pharmacological standards was able to displace
24 | neurokinin B | None of these pharmacological standards was able to displace
25 | COC(=O)[C@@H]1[C@H]2C[C@H]3c4[nH]c5ccccc5c4CCN3C[C@@H]2CC[C@@H]1O [yohimbine] | None of these pharmacological standards was able to displace
26 | veratidine | None of these pharmacological standards was able to displace
27 | c1ccc(C2(N3CCCCC3)CCCCC2)cc1 [phencyclidine] | None of these pharmacological standards was able to displace
28 | C=CCN1CCC2(C)c3cc(O)ccc3CC1C2C (single isomer, unassigned; (+)) [(+)-SKF 10,047] | None of these pharmacological standards was able to displace
29 | Nc1ncnc2c1ncn2[C@@H]1O[C@H](CO)[C@@H](O)[C@H]1O [adenosine] | None of these pharmacological standards was able to displace
30 | RPPGFSPFR [bradykinin] | None of these pharmacological standards was able to displace
31 | CC(N)Cc1ccccc1 (stereo not drawn) [amphetamine] | None of these pharmacological standards was able to displace
32 | angiotensin III | None of these pharmacological standards was able to displace
33 | C=CCN1CC[C@]23c4c5ccc(O)c4O[C@H]2C(=O)CC[C@@]3(O)[C@H]1C5 [naloxone] | None of these pharmacological standards was able to displace
34 | substance P | None of these pharmacological standards was able to displace

Biological target: DuP 996 binding protein
Assay: Radioreceptor screening assay (displacement of tritiated DuP 996)
Design: species or system rat
Settings: inhibition of binding of 10 nM tritiated DuP 996, pH 7.4, 25° C., 60 minutes
Method: Male Sprague-Dawley rats (Charles River Breeding Laboratories) at 200-250 g were euthanatized by decapitation. Rat brain regions were dissected according to Heffner et al., Pharmacol. Biochem. Behav., 13, 453 (1980). Brain membranes were prepared by the method of Tam, Proc. Natl. Acad. Sci. USA, 80, 6703 (1983). The brain tissues were homogenized (20 sec) in 10 vol (wt/vol) of ice-cold 0.32M sucrose with a Brinkman Polytron (setting 8). The homogenate was centrifuged at 920×g for 10 min at 4° C. The supernatant was centrifuged at 47,000×g for 20 min. The resulting membrane pellet was resuspended in 10 vol (original wt/vol) of 50 mM Tris-HCl (pH 7.4) and incubated at 37° C. for 30 min to degrade and dissociate bound endogenous ligands. The membranes were then centrifuged at 47,000×g for 20 min and resuspended in 50 mM Tris-HCl.
Compounds to be screened were incubated with brain membranes. (1-2 mg protein) in 50 mM Tris-HCl buffer, pH 7.4, for 10 minutes in 25° C. Then 10 nM tritiated DuP 996 or its active structural analogs were added and incubated at 25° C. for 60 minutes. The samples were filtered on Whatman GF/B glass filters which had been soaked in 0.2% polyethylenimine and washed 3 times each with 5 ml of ice-cold Tris buffer. Nonspecific binding was determined by performing binding in the presence of 10 μM DuP 996. The control represents specific binding in the absence of compounds to be screened. Screened compounds which inhibited the specific binding of tritiated DuP 996 or analogs to its binding protein should be active in binding to the same protein. This is illustrated further in Example 4, Part B.

Row | Compound | IC50 [nM]
35 | Nc1ccc2c(c1)C(Cc1ccncc1)(Cc1ccncc1)c1ccccc1-2 [Compound 2, 9,9-Bis-(4-pyridinylmethyl)-9H-fluorene-2-amine] | 30
36 | COc1ccc(C(C#N)(Cc2ccncc2)Cc2ccncc2)cc1 [Compound 10, α-(4-Methoxyphenyl)-α-(4-pyridinylmethyl)-4-pyridinepropane nitrile] | 119

Tested on: ACh release
Assay: Neurotransmitter release assay: stimulated ACh release from brain slices
Design: species or system rat
Settings: concentration to enhance stimulated release of ACh by 100% (2-fold) over control, from dose response curves
Method: Male Wistar rats weighing 175-200 g were euthanatized and the brains were dissected out immediately. Slices (0.3 mm thick) from the parietal cortex were prepared manually by using a recessed Lucite® guide. Slices (1.5 mm thick) from the hippocampus and the caudate nucleus were prepared by using a slotted brain holder. All slices were subsequently cut into 0.25×0.25 mm squares with a McIlwain tissue chopper.
Labeling of transmitter stores in slices was prepared by the following methods. For ACh release, slices (approximately 100 mg wet weight) were incubated in 10 ml Krebs-Ringer (KR) medium containing (mM): NaCl(116), KCl(3), CaCl2 (1.3), MgCl2 (1.2), KH2 PO4 (1.2), Na2 SO4 (1.2), NaHCO3 (25) and glucose(11), to which 10 μCi ^3 H-choline (specific activity approx. 80 Ci/mmol: NEN) and 10 nmol unlabeled choline had been added to give a final concentration of 10^-6 M. Incubation was carried out for 30 min at 37° C. under a steady flow of 95% O2 /5% CO2. Under these conditions, part of the radioactive choline taken up is converted into radioactive ACh by cholinergic nerve endings, stored in synaptic vesicles, and released upon depolarization by high-K^+ -containing medium [Molenaar et al., 1973a]. For dopamine (DA), serotonin (5-HT), and norepinephrine (NE) release, slices (approximately 100 mg wet weight) were incubated in KR medium containing 0.01 mM nialamide at 37° C. under a steady flow of 95% O2 /5% CO2. The MAO-inhibitor nialamide was added to the medium in order to inhibit metabolism to the monoamines. Incubation was for 30 min in 10 ml of KR medium to which 10 μCi ^3 H-dopamine, ^3 H-norepinephrine, or ^3 H-5-hydroxytryptamine (specific activity 30, 45, and 78 Ci/mmol, respectively: all from NEN) had been added.
Separate experiments were performed for the release of each neurotransmitter. After labeling of the transmitter stores, the slices were washed three times with non-radioactive KR medium and transferred to a superfusion apparatus to measure the drug effects on transmitter release [Schoemaker et al., Psychopharmacology 74, 137 (1981)]. The superfusion apparatus consisted of 10 thermo-jacketed glass columns of 5 mm diameter which were provided with GF/F glass fiber filters to support the brain slices (approximately 10 mg tissue/column). Superfusion was carried out with KR medium at a rate of 0.3 ml/min. For ACh release, 10^-5 M hemicholinium-3 was added to the medium to prevent the uptake of choline formed during superfusion from phospholipids and released ACh, so that it could not be subsequently converted into newly synthesized ACh, which would be released in preference to the pre-formed, labeled ACh. The medium was delivered by a 25-channel peristaltic pump (Ismatec; Brinkman) and maintained at 37° C. by a thermostated stainless-steel heating coil before entering the superfusion column. Each column was provided with a four-way slider valve (Beckman Instruments) which allowed rapid change of low-to-high-K^+ -KR-medium and with two 10-channel, 3-way valves which were used to change form drug-free to drug-containing low- and high-K^+ -KR media.
After 15 min washout of non-specifically bound radioactivity during superfusion, the collection of fractions of 4 min (1.2 ml) each was started. After 3×4 min, the KR medium was changed to a KR medium with 25 mM KCl (ACh, 5-HT release) or 12.5 mM KCl (DA release) (high K^+ -KR medium; S1). Depolarization-induced stimulation of release by high-K^+ -KR medium was then substituted by drug- or vehicle-containing low- and high-K^+ -KR medium and superfusion continued for 3×4 min with low-K^+ -KR medium, for 1×4 min with high-K^+ -KR medium (S2), and for 2×4 min with low-K^+ -KR medium.
Compounds were added to the medium by 100-fold dilution of appropriate stock solutions (in 0.9% NaCl/H2 O) with either low- or high-K^+ -KR medium.
All superfusion fractions were collected in liquid scintillation counting vials.

Row | Compound | ACh Release EC100
37 | Nc1ccc2c(c1)C(Cc1ccncc1)(Cc1ccncc1)c1ccccc1-2 [Compound 2, 9,9-Bis-(4-pyridinylmethyl)-9H-fluorene-2-amine] | 140 nM
38 | COc1ccc(C(C#N)(Cc2ccncc2)Cc2ccncc2)cc1 [Compound 10, α-(4-Methoxyphenyl)-α-(4-pyridinylmethyl)-4-pyridinepropane nitrile] | 1,600 nM
39 | 3,3-Bis(3-pyridinylmethyl)-1-phenyl-1H-indol-2(3H)one N-oxide [Compound 23] | 100,000 nM
